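In this assay, cells in 96-well plates receive the compound at five concentrations for 48 hours. Endpoints are linearly interpolated between the surrounding concentrations. TGI marks complete inhibition of growth.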
Tests used:
Test in all cases: growth of human tumour cells (NCI), 48 h
786-0 renal = tested on: 786-0 renal
A498 renal = tested on: A498 renal
A549 NSCLC = tested on: A549 NSCLC
ACHN renal = tested on: ACHN renal
BT-549 breast = tested on: BT-549 breast
CAKI-1 renal = tested on: CAKI-1 renal
CCRF-CEM leukemia = tested on: CCRF-CEM leukemia
COLO 205 colon = tested on: COLO 205 colon
DU-145 prostate = tested on: DU-145 prostate
EKVX NSCLC = tested on: EKVX NSCLC
HCC-2998 colon = tested on: HCC-2998 colon
HCT-116 colon = tested on: HCT-116 colon
HCT-15 colon = tested on: HCT-15 colon
HL-60(TB) leukemia = tested on: HL-60(TB) leukemia
HOP-62 NSCLC = tested on: HOP-62 NSCLC
HOP-92 NSCLC = tested on: HOP-92 NSCLC
HS 578T breast = tested on: HS 578T breast
HT29 colon = tested on: HT29 colon
IGROV1 ovarian = tested on: IGROV1 ovarian
K-562 leukemia = tested on: K-562 leukemia
KM12 colon = tested on: KM12 colon
LOX IMVI melanoma = tested on: LOX IMVI melanoma
MALME-3M melanoma = tested on: MALME-3M melanoma
MCF7 breast = tested on: MCF7 breast
MDA-MB-231 breast = tested on: MDA-MB-231 breast
MDA-MB-435 = tested on: MDA-MB-435
MDA-N = tested on: MDA-N
MOLT-4 leukemia = tested on: MOLT-4 leukemia
NCI-H226 lung = tested on: NCI-H226 lung
NCI-H23 lung = tested on: NCI-H23 lung
NCI-H460 lung = tested on: NCI-H460 lung
NCI-H522 lung = tested on: NCI-H522 lung
NCI/ADR-RES ovarian = tested on: NCI/ADR-RES ovarian
OVCAR-3 ovarian = tested on: OVCAR-3 ovarian
OVCAR-4 ovarian = tested on: OVCAR-4 ovarian
OVCAR-5 ovarian = tested on: OVCAR-5 ovarian
OVCAR-8 ovarian = tested on: OVCAR-8 ovarian
PC-3 prostate = tested on: PC-3 prostate
RPMI-8226 leukemia = tested on: RPMI-8226 leukemia
RXF 393 renal = tested on: RXF 393 renal
SF-268 CNS = tested on: SF-268 CNS
SF-295 CNS = tested on: SF-295 CNS
SF-539 CNS = tested on: SF-539 CNS
SK-MEL-28 melanoma = tested on: SK-MEL-28 melanoma
SK-MEL-5 melanoma = tested on: SK-MEL-5 melanoma
SN12C renal = tested on: SN12C renal
SNB-19 CNS = tested on: SNB-19 CNS
SNB-75 CNS = tested on: SNB-75 CNS
SR leukemia = tested on: SR leukemia
SW-620 colon = tested on: SW-620 colon
TK-10 renal = tested on: TK-10 renal
U251 CNS = tested on: U251 CNS
UACC-257 melanoma = tested on: UACC-257 melanoma
UO-31 renal = tested on: UO-31 renal
M14 melanoma = tested on: M14 melanoma
SK-MEL-2 melanoma = tested on: SK-MEL-2 melanoma
SK-OV-3 ovarian = tested on: SK-OV-3 ovarian
UACC-62 melanoma = tested on: UACC-62 melanoma
T-47D breast = tested on: T-47D breast

## O=C(Nc1nc(C23CC4CC(CC(C4)C2)C3)cs1)c1cc2cc([N+](=O)[O-])ccc2oc1=O
786-0 renal
  TGI: 45.2 µM
A498 renal
  TGI: > 100 µM
A549 NSCLC
  TGI: > 100 µM
ACHN renal
  TGI: > 100 µM
BT-549 breast
  TGI: 40.4 µM
CAKI-1 renal
  TGI: > 100 µM
CCRF-CEM leukemia
  TGI: > 100 µM
COLO 205 colon
  TGI: > 100 µM
DU-145 prostate
  TGI: > 100 µM
EKVX NSCLC
  TGI: > 100 µM
HCC-2998 colon
  TGI: > 100 µM
HCT-116 colon
  TGI: > 100 µM
HCT-15 colon
  TGI: > 100 µM
HL-60(TB) leukemia
  TGI: > 100 µM
HOP-62 NSCLC
  TGI: > 100 µM
HOP-92 NSCLC
  TGI: > 100 µM
HS 578T breast
  TGI: 67.9 µM
HT29 colon
  TGI: > 100 µM
IGROV1 ovarian
  TGI: > 100 µM
K-562 leukemia
  TGI: > 100 µM
KM12 colon
  TGI: > 100 µM
LOX IMVI melanoma
  TGI: > 100 µM
MALME-3M melanoma
  TGI: > 100 µM
MCF7 breast
  TGI: > 100 µM
MDA-MB-231 breast
  TGI: > 100 µM
MDA-MB-435
  TGI: > 100 µM
MDA-N
  TGI: > 100 µM
MOLT-4 leukemia
  TGI: > 100 µM
NCI-H226 lung
  TGI: > 100 µM
NCI-H23 lung
  TGI: > 100 µM
NCI-H460 lung
  TGI: > 100 µM
NCI-H522 lung
  TGI: > 100 µM
NCI/ADR-RES ovarian
  TGI: > 100 µM
OVCAR-3 ovarian
  TGI: > 100 µM
OVCAR-4 ovarian
  TGI: 44.8 µM
OVCAR-5 ovarian
  TGI: > 100 µM
OVCAR-8 ovarian
  TGI: > 100 µM
PC-3 prostate
  TGI: > 100 µM
RPMI-8226 leukemia
  TGI: > 100 µM
RXF 393 renal
  TGI: 74.8 µM
SF-268 CNS
  TGI: > 100 µM
SF-295 CNS
  TGI: > 100 µM
SF-539 CNS
  TGI: > 100 µM
SK-MEL-28 melanoma
  TGI: > 100 µM
SK-MEL-5 melanoma
  TGI: 96.9 µM
SN12C renal
  TGI: > 100 µM
SNB-19 CNS
  TGI: > 100 µM
SNB-75 CNS
  TGI: 74.9 µM
SR leukemia
  TGI: > 100 µM
SW-620 colon
  TGI: > 100 µM
TK-10 renal
  TGI: > 100 µM
U251 CNS
  TGI: > 100 µM
UACC-257 melanoma
  TGI: > 100 µM
UO-31 renal
  TGI: > 100 µM

## Oc1ccc2ccccc2c1OCc1nnc(CCCCCCCCc2nnc(COc3c(O)ccc4ccccc34)o2)o1
786-0 renal
  TGI: > 100 µM
A498 renal
  TGI: > 100 µM
A549 NSCLC
  TGI: > 100 µM
ACHN renal
  TGI: > 100 µM
BT-549 breast
  TGI: > 100 µM
CAKI-1 renal
  TGI: > 100 µM
COLO 205 colon
  TGI: > 100 µM
DU-145 prostate
  TGI: > 100 µM
EKVX NSCLC
  TGI: > 100 µM
HCC-2998 colon
  TGI: > 100 µM
HCT-116 colon
  TGI: 54.5 µM
HCT-15 colon
  TGI: > 100 µM
HOP-92 NSCLC
  TGI: > 100 µM
HT29 colon
  TGI: > 100 µM
IGROV1 ovarian
  TGI: > 100 µM
K-562 leukemia
  TGI: > 100 µM
KM12 colon
  TGI: > 100 µM
M14 melanoma
  TGI: > 100 µM
MALME-3M melanoma
  TGI: > 100 µM
MCF7 breast
  TGI: > 100 µM
MDA-MB-231 breast
  TGI: > 100 µM
MDA-MB-435
  TGI: > 100 µM
MDA-N
  TGI: > 100 µM
MOLT-4 leukemia
  TGI: > 100 µM
NCI-H226 lung
  TGI: > 100 µM
NCI-H23 lung
  TGI: > 100 µM
NCI-H460 lung
  TGI: > 100 µM
NCI-H522 lung
  TGI: > 100 µM
NCI/ADR-RES ovarian
  TGI: > 100 µM
OVCAR-4 ovarian
  TGI: > 100 µM
OVCAR-5 ovarian
  TGI: > 100 µM
PC-3 prostate
  TGI: > 100 µM
RPMI-8226 leukemia
  TGI: > 100 µM
RXF 393 renal
  TGI: > 100 µM
SF-268 CNS
  TGI: > 100 µM
SF-295 CNS
  TGI: > 100 µM
SK-MEL-2 melanoma
  TGI: > 100 µM
SK-MEL-28 melanoma
  TGI: > 100 µM
SK-MEL-5 melanoma
  TGI: > 100 µM
SK-OV-3 ovarian
  TGI: > 100 µM
SN12C renal
  TGI: > 100 µM
SNB-19 CNS
  TGI: > 100 µM
SNB-75 CNS
  TGI: > 100 µM
SW-620 colon
  TGI: > 100 µM
TK-10 renal
  TGI: > 100 µM
U251 CNS
  TGI: > 100 µM
UACC-257 melanoma
  TGI: > 100 µM
UACC-62 melanoma
  TGI: > 100 µM
UO-31 renal
  TGI: > 100 µM

## COc1cc(S(=O)(=O)N/N=C/c2cc(Br)c(O)c(OC)c2)c(OC)cc1NC(C)=O
786-0 renal
  TGI: 66.5 µM
A498 renal
  TGI: > 100 µM
A549 NSCLC
  TGI: > 100 µM
ACHN renal
  TGI: > 100 µM
BT-549 breast
  TGI: > 100 µM
CAKI-1 renal
  TGI: > 100 µM
CCRF-CEM leukemia
  TGI: 56.5 µM
COLO 205 colon
  TGI: 51.3 µM
DU-145 prostate
  TGI: > 100 µM
EKVX NSCLC
  TGI: > 100 µM
HCT-116 colon
  TGI: > 100 µM
HCT-15 colon
  TGI: > 100 µM
HL-60(TB) leukemia
  TGI: 58 µM
HOP-62 NSCLC
  TGI: > 100 µM
HOP-92 NSCLC
  TGI: > 100 µM
HT29 colon
  TGI: > 100 µM
IGROV1 ovarian
  TGI: > 100 µM
K-562 leukemia
  TGI: > 100 µM
KM12 colon
  TGI: > 100 µM
LOX IMVI melanoma
  TGI: > 100 µM
M14 melanoma
  TGI: > 100 µM
MCF7 breast
  TGI: > 100 µM
MDA-MB-231 breast
  TGI: > 100 µM
MDA-MB-435
  TGI: > 100 µM
MDA-N
  TGI: > 100 µM
MOLT-4 leukemia
  TGI: > 100 µM
NCI-H226 lung
  TGI: > 100 µM
NCI-H23 lung
  TGI: > 100 µM
NCI/ADR-RES ovarian
  TGI: > 100 µM
OVCAR-3 ovarian
  TGI: > 100 µM
OVCAR-4 ovarian
  TGI: > 100 µM
OVCAR-5 ovarian
  TGI: > 100 µM
OVCAR-8 ovarian
  TGI: > 100 µM
PC-3 prostate
  TGI: > 100 µM
RPMI-8226 leukemia
  TGI: > 100 µM
RXF 393 renal
  TGI: > 100 µM
SF-295 CNS
  TGI: > 100 µM
SF-539 CNS
  TGI: 41.8 µM
SK-MEL-2 melanoma
  TGI: > 100 µM
SK-MEL-28 melanoma
  TGI: > 100 µM
SK-MEL-5 melanoma
  TGI: > 100 µM
SK-OV-3 ovarian
  TGI: > 100 µM
SN12C renal
  TGI: > 100 µM
SNB-19 CNS
  TGI: > 100 µM
SNB-75 CNS
  TGI: > 100 µM
SR leukemia
  TGI: > 100 µM
SW-620 colon
  TGI: > 100 µM
T-47D breast
  TGI: > 100 µM
TK-10 renal
  TGI: > 100 µM
U251 CNS
  TGI: > 100 µM
UACC-257 melanoma
  TGI: > 100 µM
UO-31 renal
  TGI: > 100 µM

## O=S(=O)(/N=C1/SC(=Nc2ccccc2)N(c2ccccc2)/C1=N/S(=O)(=O)c1ccccc1)c1ccccc1
786-0 renal
  TGI: 41.1 µM
A498 renal
  TGI: 37.6 µM
A549 NSCLC
  TGI: 69 µM
ACHN renal
  TGI: 68.7 µM
BT-549 breast
  TGI: 79.2 µM
CCRF-CEM leukemia
  TGI: 55 µM
COLO 205 colon
  TGI: 64.1 µM
EKVX NSCLC
  TGI: 76.8 µM
HCC-2998 colon
  TGI: 48.7 µM
HCT-116 colon
  TGI: 38.4 µM
HCT-15 colon
  TGI: 34.5 µM
HL-60(TB) leukemia
  TGI: 45.1 µM
HOP-62 NSCLC
  TGI: 80.4 µM
HOP-92 NSCLC
  TGI: 62.9 µM
HS 578T breast
  TGI: > 100 µM
HT29 colon
  TGI: 48.1 µM
IGROV1 ovarian
  TGI: 46.7 µM
K-562 leukemia
  TGI: 66.6 µM
KM12 colon
  TGI: 71 µM
M14 melanoma
  TGI: 62.8 µM
MALME-3M melanoma
  TGI: 68.6 µM
MCF7 breast
  TGI: 52.7 µM
MDA-MB-231 breast
  TGI: 35.6 µM
MDA-N
  TGI: 34.4 µM
MOLT-4 leukemia
  TGI: 62.2 µM
NCI-H226 lung
  TGI: 45.7 µM
NCI-H23 lung
  TGI: 34.5 µM
NCI-H460 lung
  TGI: 51.6 µM
OVCAR-5 ovarian
  TGI: 51.6 µM
OVCAR-8 ovarian
  TGI: 62.6 µM
RPMI-8226 leukemia
  TGI: 44.6 µM
SK-MEL-2 melanoma
  TGI: 45 µM
SK-MEL-28 melanoma
  TGI: 34 µM
SK-MEL-5 melanoma
  TGI: 31.3 µM
SN12C renal
  TGI: 31.5 µM
SNB-19 CNS
  TGI: 96.8 µM
SNB-75 CNS
  TGI: 62.1 µM
SR leukemia
  TGI: 50.6 µM
SW-620 colon
  TGI: 44.2 µM
TK-10 renal
  TGI: 91.8 µM
U251 CNS
  TGI: 70.7 µM
UACC-257 melanoma
  TGI: 43.4 µM
UACC-62 melanoma
  TGI: 31.9 µM
UO-31 renal
  TGI: 39.9 µM
